Measured values: ChEMBL document CHEMBL3868598, “Synthesis, structure-activity relationship and molecular docking of 3-oxoaurones and 3-thioaurones as acetylcholinesterase and butyrylcholinesterase inhibitors” (Bioorg Med Chem, 2017)

What was measured:
Acetylcholinesterase = Acetylcholinesterase (Homo sapiens, UniProt P22303); experiment: Inhibition of acetylcholinesterase (unknown origin) using acetylthiocholine iodide as substrate incubated for 10 mins followed by substrate addition measured after 20 mins by UV-Vis spectrophotometric analysis
Cholinesterase = Cholinesterase (Homo sapiens, UniProt P06276); experiment: Inhibition of butyrylcholinesterase (unknown origin) using butyrylthiocholine chloride as substrate incubated for 10 mins followed by substrate addition measured after 20 mins by UV-Vis spectrophotometric analysis
Cholinesterase, sequence (P06276 whole entry): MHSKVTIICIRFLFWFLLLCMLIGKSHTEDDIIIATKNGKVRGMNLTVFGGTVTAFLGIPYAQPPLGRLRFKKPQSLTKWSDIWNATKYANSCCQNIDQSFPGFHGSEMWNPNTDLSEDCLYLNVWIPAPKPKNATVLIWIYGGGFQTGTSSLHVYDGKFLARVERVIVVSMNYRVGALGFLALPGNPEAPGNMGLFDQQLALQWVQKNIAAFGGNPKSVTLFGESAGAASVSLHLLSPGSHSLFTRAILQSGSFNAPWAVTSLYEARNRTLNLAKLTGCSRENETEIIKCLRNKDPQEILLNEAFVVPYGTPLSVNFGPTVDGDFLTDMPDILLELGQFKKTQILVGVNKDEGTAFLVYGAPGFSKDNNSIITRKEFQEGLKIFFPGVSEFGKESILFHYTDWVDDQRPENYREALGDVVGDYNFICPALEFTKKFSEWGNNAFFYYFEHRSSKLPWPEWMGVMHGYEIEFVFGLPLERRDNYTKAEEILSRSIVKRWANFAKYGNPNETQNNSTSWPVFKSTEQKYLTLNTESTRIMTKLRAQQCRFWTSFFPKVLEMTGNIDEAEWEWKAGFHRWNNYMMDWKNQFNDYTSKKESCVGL

Acetylcholinesterase, sequence (P22303 whole entry): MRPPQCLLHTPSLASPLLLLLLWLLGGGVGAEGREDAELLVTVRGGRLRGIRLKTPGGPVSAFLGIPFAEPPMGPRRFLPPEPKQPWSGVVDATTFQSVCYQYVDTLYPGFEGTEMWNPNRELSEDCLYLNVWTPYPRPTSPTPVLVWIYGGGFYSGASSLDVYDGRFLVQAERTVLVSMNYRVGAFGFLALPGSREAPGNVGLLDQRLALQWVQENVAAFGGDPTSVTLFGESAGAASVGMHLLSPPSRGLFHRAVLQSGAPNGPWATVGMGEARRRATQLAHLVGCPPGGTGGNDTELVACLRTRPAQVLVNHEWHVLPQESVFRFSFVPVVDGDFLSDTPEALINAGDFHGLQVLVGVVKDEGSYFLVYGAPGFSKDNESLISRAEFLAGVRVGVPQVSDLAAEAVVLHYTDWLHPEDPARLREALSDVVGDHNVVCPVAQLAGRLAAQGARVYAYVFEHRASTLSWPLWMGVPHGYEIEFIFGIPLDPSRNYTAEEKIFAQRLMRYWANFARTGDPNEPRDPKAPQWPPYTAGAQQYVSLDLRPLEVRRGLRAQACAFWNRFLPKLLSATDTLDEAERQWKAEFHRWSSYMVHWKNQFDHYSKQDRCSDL

SMILES	IC50 (Acetylcholinesterase) [nM]	IC50 (Cholinesterase) [nM]
CC(C)Cc1ccc(/C=C2\Oc3ccccc3C2=O)cc1	980	1020
S=C1/C(=C/c2ccccc2)Oc2ccccc21	6390	
Fc1ccc(/C=C2\Oc3ccccc3C2=S)cc1		5270
COc1ccc(/C=C2\Oc3ccccc3C2=O)cc1 [4'-METHOXY-AURONE]	1260	
